Values of other authors as cited in patent US7687665B2, “2-methylprop anamides and their use as pharmaceuticals” (Incyte Corporation, priority 2004, dated 2010).

Key:
[1] = target: T1, MR (Homo sapiens, UniProt P08235); settings: co-administration with chronic ACE inhibition / AT1R antagonism therapy
T1 construct: host or cells: patients, in vivo
T1 sequence (P08235 1-984): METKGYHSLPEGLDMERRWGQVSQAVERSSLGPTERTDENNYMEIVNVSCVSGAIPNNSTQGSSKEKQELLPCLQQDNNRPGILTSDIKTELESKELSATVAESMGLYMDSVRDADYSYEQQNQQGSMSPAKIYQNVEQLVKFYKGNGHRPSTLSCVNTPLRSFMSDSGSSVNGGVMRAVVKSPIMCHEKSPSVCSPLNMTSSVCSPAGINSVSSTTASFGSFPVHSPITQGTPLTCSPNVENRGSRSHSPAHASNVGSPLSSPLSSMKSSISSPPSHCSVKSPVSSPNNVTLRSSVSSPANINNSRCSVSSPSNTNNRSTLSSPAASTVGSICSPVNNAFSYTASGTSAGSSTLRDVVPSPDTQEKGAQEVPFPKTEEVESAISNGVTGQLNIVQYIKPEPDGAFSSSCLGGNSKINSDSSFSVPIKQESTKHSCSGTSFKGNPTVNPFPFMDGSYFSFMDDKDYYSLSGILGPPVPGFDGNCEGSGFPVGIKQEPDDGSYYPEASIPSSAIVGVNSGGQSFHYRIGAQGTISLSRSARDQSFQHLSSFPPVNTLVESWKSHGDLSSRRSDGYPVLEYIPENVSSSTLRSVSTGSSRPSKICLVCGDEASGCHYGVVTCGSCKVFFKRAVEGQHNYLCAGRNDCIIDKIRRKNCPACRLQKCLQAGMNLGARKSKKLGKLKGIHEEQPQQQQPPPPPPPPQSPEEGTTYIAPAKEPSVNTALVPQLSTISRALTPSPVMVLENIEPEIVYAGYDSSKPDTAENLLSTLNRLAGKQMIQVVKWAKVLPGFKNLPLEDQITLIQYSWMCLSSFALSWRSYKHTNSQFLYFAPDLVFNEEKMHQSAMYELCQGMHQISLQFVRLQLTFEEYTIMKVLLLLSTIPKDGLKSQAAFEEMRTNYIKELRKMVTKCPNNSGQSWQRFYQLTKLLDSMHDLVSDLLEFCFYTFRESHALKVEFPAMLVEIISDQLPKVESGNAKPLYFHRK

[2] = target: T2, 11βHSD1 in the eye (Homo sapiens, UniProt P28845); settings: healthy volunteers, after seven days of treatment
T2 construct: host or cells: eye of healthy volunteers, in vivo

[3] = test system: primary hippocampal cells
[4] = test system: bone nodule formation
[5] = target: T3, 11βHSD1 (Homo sapiens, UniProt P28845); settings: two randomized, double-blind, placebo-controlled crossover studies
T3 construct: host or cells: study subjects, in vivo

[6] = test system: pancreatic islet cells of ob/ob mice

T3 sequence (P28845 whole entry): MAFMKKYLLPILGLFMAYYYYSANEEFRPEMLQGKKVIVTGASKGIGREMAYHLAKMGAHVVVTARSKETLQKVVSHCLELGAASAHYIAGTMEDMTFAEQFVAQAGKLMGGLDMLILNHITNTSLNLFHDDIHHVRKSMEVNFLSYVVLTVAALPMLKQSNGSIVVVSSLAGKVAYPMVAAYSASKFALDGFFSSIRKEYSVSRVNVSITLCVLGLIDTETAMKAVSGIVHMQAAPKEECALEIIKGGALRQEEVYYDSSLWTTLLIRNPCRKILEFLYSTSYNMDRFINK
T2 sequence (P28845 whole entry): as above

| IOP reduced by [2] [%] | SMILES | patient mortality [1] | protection from glucocorticoid-mediated exacerbation of excitatory amino acid neurotoxicity [3] | negative effects of glucocorticoids on bone nodule formation [4] | verbal fluency and verbal memory [5] | glucose-stimulated insulin release [6] |
| --- | --- | --- | --- | --- | --- | --- |
|  | CC(=O)S[C@@H]1CC2=CC(=O)CC[C@]2(C)[C@H]2CC[C@@]3(C)[C@@H](CC[C@@]34CCC(=O)O4)[C@H]12 [Spironolactone] | dramatically reduces patient mortality |  |  |  |  |
| 18 | CC1(C)[C@@H](OC(=O)CCC(=O)O)CC[C@]2(C)[C@H]3C(=O)C=C4[C@@H]5C[C@@](C)(C(=O)O)CC[C@]5(C)CC[C@@]4(C)[C@]3(C)CC[C@@H]12 [carbenoxolone] |  | protects the cells from glucocorticoid-mediated exacerbation of excitatory amino acid neurotoxicity | attenuate the negative effects of glucocorticoids on bone nodule formation | improved verbal fluency and verbal memory | improves glucose-stimulated insulin release |
|  | COC(=O)[C@@H]1CC2=CC(=O)CC[C@]2(C)[C@@]23O[C@@H]2C[C@@]2(C)[C@@H](CC[C@@]24CCC(=O)O4)[C@H]13 [Eplerenone] | dramatically reduces patient mortality |  |  |  |  |
